Literature values in PMC8344021, “Discovery of Small Molecule Bak Activator for Lung Cancer Therapy” (Theranostics, 2021).

Tests used:
SCLC = system: SCLC; set-up: method as in PMID 21282543, PMID 22496272; conditions: single-agent, SCLC patients; ref [16], [17]; cited from earlier work
[1] = system: chronic lymphocytic leukemia (CLL); set-up: method as in PMID 29562156, PMID 31205643; conditions: venetoclax monotherapy or venetoclax/rituximab combination; ref [11], [12]; cited from earlier work

SMILES	clinical efficacy (SCLC)	proportion of patients who develop venetoclax failure [1]
CC1(C)CCC(c2ccc(Cl)cc2)=C(CN2CCN(c3ccc(C(=O)NS(=O)(=O)c4ccc(N[C@H](CCN5CCOCC5)CSc5ccccc5)c(S(=O)(=O)C(F)(F)F)c4)cc3)CC2)C1 [navitoclax]	limited efficacy	–
CC1(C)CCC(CN2CCN(c3ccc(C(=O)NS(=O)(=O)c4ccc(NCC5CCOCC5)c([N+](=O)[O-])c4)c(Oc4cnc5[nH]ccc5c4)c3)CC2)=C(c2ccc(Cl)cc2)C1 [venetoclax]	–	15-25%
